Results taken from US6355785B1, “Guanosine-rich oligonucleotide integrase inhibitors” (Aronex Pharmaceuticals, Inc., priority 1993, dated 2002).
Values joined by “and” are separate entries in the source; they are usually repeats but may differ in a detail not shown here. Equal values may be shown once. Read-outs that look alike come from different tables or passages of the source. Marks after values point to notes of the source that are not given here.

Columns and labels:
[1] = test system: HIV-1 strains (SKI, RF, DV, IIIB, ADP/141); test: microbe, parasite or virus in culture; format: cell-based
[2] = target: recombinant HIV-1 integrase (wild-type) (Human immunodeficiency virus type 1 group M subtype B, UniProt P12497); test: HIV-1 integrase 3′-processing and strand transfer assays; format: biochemical; parameters: Purified recombinant HIV-1 integrase enzyme (wild-type) was a generous gift from Dr. R. Craigie; purchased gift of Dr. R. Craigie, Laboratory of Molecular Biology, NIDDK (not bought)
Experimental: Integrase enzyme assays. Purified recombinant HIV-1 integrase enzyme (wild-type) was a generous gift from Dr. R. Craigie, Laboratory of Molecular Biology, National Institute of Diabetes and Digestive and Kidney Diseases. The enzyme (0.25 μM) was preincubated in reaction buffer at 20° C. for 30 minutes. All 3′-processing and strand-transfer reactions were performed as described previously by Fresen et al. (Fresen, et al., Proc. Natl. Acad. Sci. USA 90:2399-2403 (1993)) and Mazumder et al. (Mazumder, et al., Proc. Natl. Acad. Sci. USA 91:5771-5775 (1994)). Enzyme reactions were quenched by the addition of Maxam-Gilbert loading dye, and an aliquot was electrophoresed on a denaturing 20% polyacrylamide gel. Gels were then dried and subjected to autoradiography using Kodax XAR-2 film or exposed in a Molecular Dynamics Phospholmager cassette.
Integrase was preincubated at a final concentration of 200 (for HIV-1 and HIV-2) or 600 nM (for FIV and SIV) with inhibitor in reaction buffer (50 mM Nac1, 1 mM HEPES, pH 7.5, 50 μM dithiothreitol, 10% glycerol (wt/vol), 7.5 mM MnCl2 or MgCL2 (when specified), 0.1 mg/mL bovine serum albumin, 20 mM 2-mercaptoethanol, 10% dimethyl sulfoxide, and 25 mM MOPS, pH 7.2) at 30° C. for 30 minutes. When magnesium was used as the divalent metal ion, polyethylene glycol was added at a final concentration of 5% to increase activity as previously described (Engelman & Craigie, 1995). Preincubation for 30 minutes of the enzyme with inhibitor was performed to optimize increases the inhibitory activity in the 3′-processing reaction (Fesen et al., 1994). Then, 30 nM of the 5′-end ^32P-labeled linear oligonucleotide substrate was added, and incubation was continued for an additional 1 hr. The final reaction volume was 16 μL.
Electrophoresis and quantitation. Reactions were quenched by the addition of an equal volume […] of loading dye (98% deionized formamide, 10 mM EDTA, 0.025% xylene cyanol, 0.025% bromophenol blue). An aliquot (5 μL) was electrophoresed on a denaturing 20% polyacrylamide gel (0.09 M Tris-borate pH 8.3, 2 mM EDTA, 20% acrylamide, 8M urea). Gels were dried, exposed in a Molecular Dynamics Phosphorimager cassette, and analyzed using a Molecular Dynamics phosphorimager (Sunnyvale, Calif.). Percent inhibition was calculated using the following equation:
where C, N, and D are the fractions of 21mer substrate converted to 19mer (3′-processing product) or strand transfer products for DNA alone, DNA plus integrase, and integrase plus drug, respectively.
Antiviral assay. The RF laboratory strain of HIV-1 was used to infect established cell lines for one hour at 37° C. prior to washing and resuspension in medium containing increasing concentrations of drug. […] Purified recombinant HIV-1 integrase enzyme (wild-type) was a generous gift from Dr. Craigie, Laboratory of Molecular Biology, NIDDK. All 3′-processing and strand-transfers were performed as described previously by Fresen et al. (Fresen et al. (1993) Proc. Natl. Acad. Sci. VSA 90, 2399-2403) and Mazurnder et al. (Mazumder et al. (1994) Proc. Natl. Acad. Sci. USA 91, 5771-75).

HIV-1RF = test: HeLa-CD4-LTR-β-galactosidase cell virus infection assay; format: cell-based
HIV-1 strain DV = test: HIV-1 induced syncytia formation assay in SUP T1 cells; format: cell-based
[3] = target: HIV-1 gp120 interaction with CD4 (Human immunodeficiency virus type 1 group M subtype B, UniProt P04578)
SUP T1 cells = test: Cytotoxicity assay, CellTiter 96 (MTS), SUP T1 cells; settings: read-out: TC50 (concentration reducing cell proliferation by 50%); SUP T1, dye (MTS) metabolism assay
HIV-1 RT = HIV-1 RT (Human immunodeficiency virus type 1 group M subtype B, UniProt P04585); test: In vitro inhibition of HIV-1 RT (kinetic analysis); format: biochemical; settings: for IC50: read-out: ID50 (the source's name)
[4] = test system: CD4- and gp120-mediated cell fusion; test: cells; format: cell-based; settings: HL2/3, read-out: IC50 CD4- and gp120-mediated cell fusion
HIV-1IIIB = test: Time of drug addition study, MT-4 cells (p24); format: cell-based; settings: 100-fold IC50, MOI 1, p24 at 29 hour
HIV-1SKI = test: Single cycle analysis of HIV-1 cDNA, CEM-SS cells; format: cell-based; settings: 10- to 100-fold over IC50
[5] = target: HIV-1 integrase (wild-type and deletion mutants) (Human immunodeficiency virus type 1 group M subtype B, UniProt P12497); test: UV crosslinking DNA binding experiments; settings: enzyme preincubated with oligo
Experimental: UV crosslinking experiments. The method used has been described by Engleman et al. Engelman, et al., J. Virol. 68, 5911-5917 (1994). Briefly, integrase (at the indicated concentration) was incubated with substrate in reaction buffer as above for 5 minutes at 30° C. Reactions were then irradiated with a UV transilluminator (254 nm wavelength) from 3 cm above (2.4 mW/cm2) at room temperature for 10 minutes. An equal volume (16 μL) of 2X SDS-PAGE buffer (100 mM Tris, pH 6.8, 4% 2-mercaptoethanol, 4% SDS, 0.2% bromophenol blue, 20% glycerol) was added to each reaction. Twenty μL aliquots were heated at 95° C. for 3 minutes prior to loading on a 12% or 18% SDS-polyacrylamide gel. The gel was run at 120 V for 1.5 hours, dried, and exposed in a Phosphorlmager cassette. […] For the competition experiments (FIG. 29), integrase (200 nM) was preincubated with either the radiolabeled viral DNA substrate (20 nM) or T30177 (20 nM) for 5 minutes at 30° C. prior to the addition of competitor DNA at the indicated concentration.

[6] = target: T1, recombinant RT (HIV-1BH10) (Human immunodeficiency virus type 1 group M subtype B, UniProt P03366); test: Reverse transcriptase enzyme inhibition assays; format: biochemical; settings: read-out: IC50 recombinant HIV-1 RT
T1 construct: Purified recombinant RT (HIV-1BH10) was obtained from the University of Alabama; purchased University of Alabama, Center for AIDS research (obtained from)

[7] = Thermal denaturation of oligomer fold (UV, Tm); format: physicochemical
[8] = Oligomer folding by circular dichroism; settings: for midpoint of K+ induced folding transition (CD, 264 nm): KCl, 25° C., 20 mM Li3PO4
HIV-1DV [9] = test: Analysis of HIV-1 RNA and DNA in single cycle assays, SUP T1; format: cell-based
HIV-1DV [10] = test: HIV-1 p24 production in SUP T1 cells; format: cell-based
[11] = HIV-1 RF, CEM-SS or MT4, read-out: Antiviral Assay IC50 RF
[12] = strand transfer, read-out: Anti-Integrase Assay IC50 strand tran.
[13] = Human immunodeficiency virus 1, IIIB, CEM-SS, read-out: Antiviral Assay IC50 IIIB, HIV-1 IIIB, CEM-SS or MT4
[14] = Human immunodeficiency virus 1, IIIB, CEM-SS, read-out: Antiviral Assay IC50 RF, HIV-1 RF, CEM-SS or MT4
[15] = Human immunodeficiency virus 1, IIIB, CEM-SS, read-out: Antiviral Assay IC50 SKI, HIV-1 SKI, CEM-SS or MT4
[16] = HIV-1 IIIB, CEM-SS or MT4, read-out: Antiviral Assay IC50 IIIB
[17] = HIV-1 SKI, CEM-SS or MT4, read-out: Antiviral Assay IC50 SKI
[18] = anti-HIV-1 virus production, read-out: Cell Culture IC50
[19] = 3′-processing, read-out: Anti-Integrase Assay IC50 3′-proc
[20] = read-out: Enzyme IC50 3-′process
[21] = cell culture, read-out: IC50 HIV-1RF

## 5′-GTGATGGGTGGGTGGGT-3′ (phosphorothioate termini, further chemistry not given here) [T30526, pPT, dA for dG, tetrad-disrupted mutant of T30177]
[1]; [11]
  IC50: 11700 nM
[2]; [12]
  IC50: 123 nM
HIV-1RF
  less potent than T30177 at inhibiting virus-infected cell β-galactosidase production: 10-15 fold

## 5′-gttgggggttgttggtggggtggtgg-3′ [I100-00] (DNA GTTGGGGGTTGTTGGTGGGGTGGTGG; phosphorodiamidate backbone, further chemistry not given here) [26 mer PD]
HIV-1 strain DV; SUP T1, HIV-1 DV, read-out: IC50 in anti-HIV-1 syncytia formation assay
  IC50: 3750 nM
[3]; read-out: ID50 [CD4], oligo binding to immobilized CD4
  IC50: 18000 nM
[3]; read-out: ID50 [gp 120], oligo preincubated with soluble gp120
  IC50: 3500 nM
SUP T1 cells
  CC50: 37000 nM
HIV-1 RT
  Ki: 370 nM
  IC50: 5000 nM

## COc1cc(-c2ccc(/N=N/c3ccc4c(S(=O)(=O)O)cc(S(=O)(=O)O)c(N)c4c3O)c(OC)c2)ccc1/N=N/c1ccc2c(S(=O)(=O)O)cc(S(=O)(=O)O)c(N)c2c1O [CSB, Chicago sky blue]
[1]; [13]
  IC50: 600 nM
[1]; [14]
  IC50: 1700 nM
[1]; [15]
  IC50: 1600 nM
[4]
  IC50: 800 nM
HIV-1IIIB
  delay of drug addition post-infection at which inhibitory effect is lost: one hour post-virus infection
HIV-1SKI
  viral cDNA 12 hours post-infection, drug added at time of infection: no detectable viral DNA
HIV-1RF; Human immunodeficiency virus 1, HIV-1RF, read-out: IC50 β-galactosidase production, virus infection assay
  IC50: 260 nM

## 5′-ggttggtgtggttgg-3′ [T30659, reference compound]
[1]; [16]
  IC50: > 20000 nM
[1]; [11]
  IC50: > 20000 nM
[1]; [17]
  IC50: 2810 nM
[1]; [18]
  IC50: > 20000 nM
[2]; [19]
  IC50: > 500 nM
[2]; [20]
  IC50: 750 nM
[2]; [12]
  IC50: > 500 nM
[5]
  inhibition of integrase binding to radiolabeled U5 DNA substrate: only modest inhibition of DNA binding

## Cc1cn([C@H]2C[C@H](N=[N+]=[N-])[C@@H](COP(=O)(O)OP(=O)(O)OP(=O)(O)O)O2)c(=O)[nH]c1=O [AZT 5′-triphosphate, reference compound]
[6]; template gapped duplex DNA, duplicate experiments
  IC50: 470 nM and 400 nM
[6]; template poly(rA)p(dT)12-18, duplicate experiments
  IC50: 590 nM and 600 nM

## 5′-gggtgggtgggtgggt-3′ [T30695]
[1]; [18]
  IC50: 70 nM
[1]; [21]
  IC50: 70 nM
[2]; [20]
  IC50: 20 nM
[2]; read-out: Enzyme IC50 Stran Trans
  IC50: 60 nM
[2]; read-out: IC50 3′-PROC
  IC50: 43 ± 17 nM
[2]; read-out: IC50 STR · TRA
  IC50: 24 ± 4 nM
[7]; 1 mM KCl
  Tm: 67 °C
[7]; 10 mM KCl, calculated from linear fit
  Tm: 87* ° C.
[7]; 180 mM KCl, calculated from linear fit
  Tm: 110* ° C.
[8]
  midpoint of K+ induced folding transition (CD, 264 nm): ~0.02 mM
[8]; RbCl
  midpoint of Rb+ induced folding transition (CD): 0.5 mM

## 5′-gtggtgggtgggtgggt-3′ (GTGGTGGGTGGGTGGGT; phosphodiester, 3'-propanolamine, further chemistry not given here) [I100-15, 17 mer PD, 3′-propanolamine]
HIV-1 strain DV
  T.I. (therapeutic index): >200
HIV-1 strain DV; SUP T1, HIV-1DV, four days, read-out: IC50 Syn (syncytium inhibition)
  IC50: 125 nM
HIV-1 strain DV; size variants of I100-15, read-out: IC50 Syn.
  IC50: 160 nM
HIV-1DV [9]; 36 hr post-infection
  viral DNA synthesis (PCR): minimal
HIV-1DV [9]; drug added at zero hours
  HIV-1 specific transcript (RT-PCR): reduced level of HIV-1 specific transcript
HIV-1DV [10]; 2.5 uM, drug removed day 4
  Percent p24 relative to infected untreated control, Day 7: 0.0%
  Percent p24 relative to infected untreated control, Day 11: 0.0%
HIV-1DV [10]; 2.5 uM, medium replaced day 4
  Percent p24 relative to infected untreated control, Day 4: 0.0%
HIV-1DV [10]; SUP T1, HIV-1DV, four days
  IC50: 80 nM
HIV-1 RT
  Ki: > 5000 nM
  IC50: > 5000 nM

## 5′-gtggtgggtgtggtgggt-3′ (GTGGTGGGTGTGGTGGGT; phosphorothioate termini, further chemistry not given here) [T30676]
[1]; [18]
  IC50: 1000 nM
[1]; [21]
  IC50: 1000 nM
[2]; [20]
  IC50: 134 nM
[2]; read-out: IC50 STR · TRA
  IC50: 134 ± 16 nM
[7]; 1 mM KCl
  Tm: 33 °C
[7]; 10 mM KCl
  Tm: 46 °C
[7]; 180 mM KCl
  Tm: 65 °C
[8]
  midpoint of K+ induced folding transition (CD, 264 nm): 0.27 mM

## CC(C)OC(=O)c1cc(NC(=S)OC(C)C)ccc1Cl [UC38]
[1]; [16]
  IC50: 90 nM
[1]; [11]
  IC50: 20 nM
[1]; [17]
  IC50: 90 nM
HIV-1SKI
  viral cDNA 12 hours post-infection, drug added at time of infection: no detectable viral DNA

## Nc1ccn([C@H]2CC[C@@H](CO)O2)c(=O)n1 [ddC, 2′,3′-dideoxycytidine]
[1]; [13]
  IC50: 78 nM
[1]; [14]
  IC50: 57 nM
[1]; [15]
  IC50: 260 nM
[1]; Human immunodeficiency virus 1, IIIB, CEM-SS, read-out: IC50 virus production, HIV-1 RF, CEM-SS, MOI 0.01
  IC50: 57 nM
[2]; [19]
  IC50: > 1000 nM
[2]; [12]
  IC50: > 1000 nM
HIV-1SKI
  viral cDNA 12 hours post-infection, drug added at time of infection: no detectable viral DNA
